Design in all cases: scale not given: the % may be the effect or the level left
In assay [1] the target is Tyrosine-protein kinase receptor UFO (Homo sapiens) (UniProt P30530). The experiment in a line: Inhibition of human AXL assessed as enzyme activity at 1 uM using poly[Glu:Tyr] (4:1) as substrate preincubated for 20 mins followed by [gamma-33P]-ATP addition and measured after 120 mins by radiometric Hot-SpotSM Kinase assay relative to control.
The target in assay [2] is T1, Kinase suppressor of Ras 1 (Homo sapiens) (UniProt Q8IVT5).
T1 sequence (whole entry): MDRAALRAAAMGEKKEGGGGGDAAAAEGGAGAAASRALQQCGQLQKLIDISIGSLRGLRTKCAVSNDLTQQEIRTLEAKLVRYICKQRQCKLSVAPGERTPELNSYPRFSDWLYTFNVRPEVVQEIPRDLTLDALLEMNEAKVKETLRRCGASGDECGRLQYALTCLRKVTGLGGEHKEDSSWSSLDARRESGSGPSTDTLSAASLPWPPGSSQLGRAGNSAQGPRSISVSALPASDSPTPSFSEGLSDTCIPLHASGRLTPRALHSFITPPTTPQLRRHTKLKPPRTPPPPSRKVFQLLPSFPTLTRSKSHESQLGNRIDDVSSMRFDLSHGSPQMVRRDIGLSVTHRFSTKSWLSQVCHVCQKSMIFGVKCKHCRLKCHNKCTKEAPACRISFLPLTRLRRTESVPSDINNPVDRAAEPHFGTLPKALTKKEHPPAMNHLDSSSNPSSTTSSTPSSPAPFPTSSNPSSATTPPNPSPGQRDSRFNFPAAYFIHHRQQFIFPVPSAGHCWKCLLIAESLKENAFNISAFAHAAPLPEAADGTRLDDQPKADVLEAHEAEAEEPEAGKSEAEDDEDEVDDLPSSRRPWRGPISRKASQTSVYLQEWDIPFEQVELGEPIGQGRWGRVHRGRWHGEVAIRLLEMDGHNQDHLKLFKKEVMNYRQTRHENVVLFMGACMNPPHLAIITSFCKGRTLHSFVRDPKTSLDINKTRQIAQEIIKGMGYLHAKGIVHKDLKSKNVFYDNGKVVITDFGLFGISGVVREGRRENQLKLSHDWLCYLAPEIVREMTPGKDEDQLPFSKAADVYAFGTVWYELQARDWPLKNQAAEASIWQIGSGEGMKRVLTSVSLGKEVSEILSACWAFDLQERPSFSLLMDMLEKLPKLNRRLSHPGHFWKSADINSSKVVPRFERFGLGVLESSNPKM
The experiment in a line: Inhibition of human KSR1 assessed as enzyme activity at 1 uM using KRREILSRRPSYR as substrate preincubated for 20 mins followed by [gamma-33P]-ATP addition and measured after 120 mins by radiometric Hot-SpotSM Kinase assay relative to control.

Assay [3] concerns the target T2, Serine/threonine-protein kinase tousled-like 1 (Homo sapiens) (UniProt Q9UKI8).
T2 sequence (whole entry): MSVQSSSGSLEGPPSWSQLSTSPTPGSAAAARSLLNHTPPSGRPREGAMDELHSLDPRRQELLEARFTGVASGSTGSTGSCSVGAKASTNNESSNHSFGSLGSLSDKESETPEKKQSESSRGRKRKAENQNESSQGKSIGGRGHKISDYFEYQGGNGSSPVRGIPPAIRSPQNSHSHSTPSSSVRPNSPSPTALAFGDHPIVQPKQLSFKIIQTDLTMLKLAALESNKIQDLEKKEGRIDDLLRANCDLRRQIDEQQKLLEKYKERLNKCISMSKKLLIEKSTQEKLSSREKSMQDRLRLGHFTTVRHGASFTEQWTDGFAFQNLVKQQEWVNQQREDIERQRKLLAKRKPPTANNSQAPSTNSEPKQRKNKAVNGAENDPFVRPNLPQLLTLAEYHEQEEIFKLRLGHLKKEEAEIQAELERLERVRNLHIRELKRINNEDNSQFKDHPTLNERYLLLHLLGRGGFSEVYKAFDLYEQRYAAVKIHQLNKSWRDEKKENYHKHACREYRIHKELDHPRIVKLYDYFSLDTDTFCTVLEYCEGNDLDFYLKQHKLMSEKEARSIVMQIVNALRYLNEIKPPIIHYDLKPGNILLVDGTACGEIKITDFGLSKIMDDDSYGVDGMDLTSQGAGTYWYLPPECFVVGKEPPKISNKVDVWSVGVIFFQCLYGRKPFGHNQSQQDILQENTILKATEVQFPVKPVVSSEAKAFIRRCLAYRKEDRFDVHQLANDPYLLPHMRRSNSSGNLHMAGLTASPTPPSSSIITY
The experiment in a line: Inhibition of human TLK1 assessed as enzyme activity at 1 uM using histone H3 as substrate preincubated for 20 mins followed by [gamma-33P]-ATP addition and measured after 120 mins by radiometric Hot-SpotSM Kinase assay relative to control.

Assay [4] deals with Serine/threonine-protein kinase PAK 4 (Homo sapiens) (UniProt O96013). The experiment in a line: Inhibition of human PAK4 assessed as enzyme activity at 1 uM using RRRLSFAEPG as substrate preincubated for 20 mins followed by [gamma-33P]-ATP addition and measured after 120 mins by radiometric Hot-SpotSM Kinase assay relative to control.
The target of assay [5] is Serine/threonine-protein kinase PAK 1 (Homo sapiens) (UniProt Q13153). The experiment in a line: Inhibition of human PAK1 assessed as enzyme activity at 1 uM using RRRLSFAEPG as substrate preincubated for 20 mins followed by [gamma-33P]-ATP addition and measured after 120 mins by radiometric Hot-SpotSM Kinase assay relative to control.
For assay [6], the target named is Mitogen-activated protein kinase kinase kinase 8 (Homo sapiens) (UniProt P41279). The assay is described as follows: Inhibition of human COT1 assessed as enzyme activity at 1 uM using MEK1 (K97R) as substrate preincubated for 20 mins followed by [gamma-33P]-ATP addition and measured after 120 mins by radiometric Hot-SpotSM Kinase assay relative to control.
In assay [7] the target is Serine/threonine-protein kinase PAK 3 (Homo sapiens) (UniProt O75914). The assay is described as follows: Inhibition of human PAK3 assessed as enzyme activity at 1 uM using RRRLSFAEPG as substrate preincubated for 20 mins followed by [gamma-33P]-ATP addition and measured after 120 mins by radiometric Hot-SpotSM Kinase assay relative to control.
The target in assay [8] is G protein-coupled receptor kinase 6 (Homo sapiens) (UniProt P43250). The experiment in a line: Inhibition of human GRK6 assessed as enzyme activity at 1 uM using casein as substrate preincubated for 20 mins followed by [gamma-33P]-ATP addition and measured after 120 mins by radiometric Hot-SpotSM Kinase assay relative to control.
For assay [9], the target named is Macrophage colony-stimulating factor 1 receptor (Homo sapiens) (UniProt P07333). The assay is described as follows: Inhibition of human FMS assessed as enzyme activity at 1 uM using poly[Glu:Tyr] (4:1) as substrate preincubated for 20 mins followed by [gamma-33P]-ATP addition and measured after 120 mins by radiometric Hot-SpotSM Kinase assay relative to control.

Assay [10] addresses Tyrosine-protein kinase Lyn (Homo sapiens) (UniProt P07948). The assay is described as follows: Inhibition of human LYN assessed as enzyme activity at 1 uM using poly[Glu:Tyr] (4:1) as substrate preincubated for 20 mins followed by [gamma-33P]-ATP addition and measured after 120 mins by radiometric Hot-SpotSM Kinase assay relative to control.

SMILES strings stand for the structures.

Tyrosine-protein kinase Lyn (Homo sapiens), sequence (P07948 2-512 limits assumed): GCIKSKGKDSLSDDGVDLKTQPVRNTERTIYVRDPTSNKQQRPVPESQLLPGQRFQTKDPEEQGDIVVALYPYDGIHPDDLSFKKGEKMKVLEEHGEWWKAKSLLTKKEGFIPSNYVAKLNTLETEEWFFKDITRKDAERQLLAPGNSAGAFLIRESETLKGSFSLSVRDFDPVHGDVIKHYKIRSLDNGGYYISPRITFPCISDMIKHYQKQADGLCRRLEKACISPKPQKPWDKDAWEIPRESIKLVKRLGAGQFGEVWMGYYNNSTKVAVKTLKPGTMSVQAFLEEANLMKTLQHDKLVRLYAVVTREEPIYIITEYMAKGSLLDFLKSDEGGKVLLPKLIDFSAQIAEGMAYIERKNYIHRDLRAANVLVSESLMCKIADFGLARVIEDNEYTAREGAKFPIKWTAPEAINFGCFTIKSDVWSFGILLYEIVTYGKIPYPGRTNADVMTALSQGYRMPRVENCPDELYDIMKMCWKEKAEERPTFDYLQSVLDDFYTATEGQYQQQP
G protein-coupled receptor kinase 6 (Homo sapiens), sequence (P43250 whole entry, looked up): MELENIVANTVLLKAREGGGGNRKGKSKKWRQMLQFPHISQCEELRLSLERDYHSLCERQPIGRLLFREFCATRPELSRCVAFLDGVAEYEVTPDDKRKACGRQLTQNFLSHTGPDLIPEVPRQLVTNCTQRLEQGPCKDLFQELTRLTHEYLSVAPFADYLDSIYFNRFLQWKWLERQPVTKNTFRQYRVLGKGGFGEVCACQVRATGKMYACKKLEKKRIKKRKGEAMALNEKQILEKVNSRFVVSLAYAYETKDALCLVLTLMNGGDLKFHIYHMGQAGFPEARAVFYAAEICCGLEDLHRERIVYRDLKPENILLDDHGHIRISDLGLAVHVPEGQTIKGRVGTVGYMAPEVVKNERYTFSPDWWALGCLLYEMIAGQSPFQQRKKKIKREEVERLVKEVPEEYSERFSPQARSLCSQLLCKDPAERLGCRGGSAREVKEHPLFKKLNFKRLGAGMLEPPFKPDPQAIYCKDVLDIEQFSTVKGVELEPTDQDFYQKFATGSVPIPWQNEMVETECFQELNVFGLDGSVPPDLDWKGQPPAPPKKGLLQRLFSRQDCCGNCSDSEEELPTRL
Serine/threonine-protein kinase PAK 1 (Homo sapiens), sequence (Q13153 whole entry): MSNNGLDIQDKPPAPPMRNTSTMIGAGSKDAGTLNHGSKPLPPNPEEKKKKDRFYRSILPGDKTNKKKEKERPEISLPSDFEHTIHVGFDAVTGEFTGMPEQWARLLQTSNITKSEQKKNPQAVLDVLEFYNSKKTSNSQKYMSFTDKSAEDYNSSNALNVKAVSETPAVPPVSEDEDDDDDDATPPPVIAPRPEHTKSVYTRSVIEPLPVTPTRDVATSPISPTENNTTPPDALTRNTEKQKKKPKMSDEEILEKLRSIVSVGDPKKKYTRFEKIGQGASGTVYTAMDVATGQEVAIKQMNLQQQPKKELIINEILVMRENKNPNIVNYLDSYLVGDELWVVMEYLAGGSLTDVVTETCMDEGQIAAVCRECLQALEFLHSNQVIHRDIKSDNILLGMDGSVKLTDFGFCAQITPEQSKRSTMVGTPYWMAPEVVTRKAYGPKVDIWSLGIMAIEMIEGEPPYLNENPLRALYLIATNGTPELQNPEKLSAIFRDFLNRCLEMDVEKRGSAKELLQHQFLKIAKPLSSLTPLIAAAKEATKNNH
Serine/threonine-protein kinase PAK 3 (Homo sapiens), sequence (O75914 whole entry, looked up): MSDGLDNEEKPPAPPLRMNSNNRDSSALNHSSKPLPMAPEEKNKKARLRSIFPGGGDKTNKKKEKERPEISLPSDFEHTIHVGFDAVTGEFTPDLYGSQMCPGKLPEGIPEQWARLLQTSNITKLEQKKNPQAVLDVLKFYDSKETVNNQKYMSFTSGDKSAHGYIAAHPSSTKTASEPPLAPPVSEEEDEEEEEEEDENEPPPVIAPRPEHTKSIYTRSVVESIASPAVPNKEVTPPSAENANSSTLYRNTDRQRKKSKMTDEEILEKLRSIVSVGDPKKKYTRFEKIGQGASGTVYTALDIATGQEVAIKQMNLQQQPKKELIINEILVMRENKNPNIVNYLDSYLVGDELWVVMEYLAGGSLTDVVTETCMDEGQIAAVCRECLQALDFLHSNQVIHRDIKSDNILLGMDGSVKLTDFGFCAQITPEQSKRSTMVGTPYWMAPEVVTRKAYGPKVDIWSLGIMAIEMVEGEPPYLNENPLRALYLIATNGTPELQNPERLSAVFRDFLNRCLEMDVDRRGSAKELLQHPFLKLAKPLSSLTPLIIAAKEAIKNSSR
Macrophage colony-stimulating factor 1 receptor (Homo sapiens), sequence (P07333 whole entry): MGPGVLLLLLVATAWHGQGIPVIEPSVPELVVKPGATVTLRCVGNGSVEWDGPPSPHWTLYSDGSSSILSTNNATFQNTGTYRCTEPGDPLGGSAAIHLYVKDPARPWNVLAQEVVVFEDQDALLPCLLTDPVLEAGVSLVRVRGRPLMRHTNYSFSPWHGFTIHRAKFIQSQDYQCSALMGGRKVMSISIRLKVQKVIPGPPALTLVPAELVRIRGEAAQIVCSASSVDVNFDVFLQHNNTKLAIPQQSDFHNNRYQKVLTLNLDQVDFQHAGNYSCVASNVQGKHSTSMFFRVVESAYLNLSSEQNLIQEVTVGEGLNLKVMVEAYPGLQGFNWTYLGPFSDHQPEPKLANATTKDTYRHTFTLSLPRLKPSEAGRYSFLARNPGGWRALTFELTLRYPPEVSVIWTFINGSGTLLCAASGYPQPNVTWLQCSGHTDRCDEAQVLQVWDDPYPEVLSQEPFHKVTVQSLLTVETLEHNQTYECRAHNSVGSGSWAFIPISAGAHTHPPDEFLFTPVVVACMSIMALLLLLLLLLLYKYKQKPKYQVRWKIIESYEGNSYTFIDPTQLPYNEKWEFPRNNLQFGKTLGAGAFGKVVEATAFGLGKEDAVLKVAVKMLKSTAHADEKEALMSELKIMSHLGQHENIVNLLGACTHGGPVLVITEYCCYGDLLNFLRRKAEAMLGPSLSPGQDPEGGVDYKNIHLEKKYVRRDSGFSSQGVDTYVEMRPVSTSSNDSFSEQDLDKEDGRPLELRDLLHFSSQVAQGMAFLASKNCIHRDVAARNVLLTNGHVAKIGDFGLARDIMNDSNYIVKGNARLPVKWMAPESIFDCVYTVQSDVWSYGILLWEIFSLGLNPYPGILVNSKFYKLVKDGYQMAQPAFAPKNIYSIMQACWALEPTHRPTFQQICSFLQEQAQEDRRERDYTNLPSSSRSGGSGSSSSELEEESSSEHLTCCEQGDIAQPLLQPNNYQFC
Mitogen-activated protein kinase kinase kinase 8 (Homo sapiens), sequence (P41279 whole entry): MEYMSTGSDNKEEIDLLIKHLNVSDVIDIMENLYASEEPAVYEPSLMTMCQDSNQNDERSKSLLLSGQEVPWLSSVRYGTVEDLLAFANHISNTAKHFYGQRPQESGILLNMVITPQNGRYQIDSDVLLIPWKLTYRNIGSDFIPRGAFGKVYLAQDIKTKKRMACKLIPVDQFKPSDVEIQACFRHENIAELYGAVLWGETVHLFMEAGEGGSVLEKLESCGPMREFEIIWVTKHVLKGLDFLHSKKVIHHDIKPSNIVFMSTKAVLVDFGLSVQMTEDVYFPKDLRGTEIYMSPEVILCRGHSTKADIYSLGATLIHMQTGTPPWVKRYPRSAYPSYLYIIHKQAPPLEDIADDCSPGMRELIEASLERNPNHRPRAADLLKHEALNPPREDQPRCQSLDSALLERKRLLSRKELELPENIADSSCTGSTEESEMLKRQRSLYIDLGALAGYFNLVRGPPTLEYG
Tyrosine-protein kinase receptor UFO (Homo sapiens), sequence (P30530 whole entry): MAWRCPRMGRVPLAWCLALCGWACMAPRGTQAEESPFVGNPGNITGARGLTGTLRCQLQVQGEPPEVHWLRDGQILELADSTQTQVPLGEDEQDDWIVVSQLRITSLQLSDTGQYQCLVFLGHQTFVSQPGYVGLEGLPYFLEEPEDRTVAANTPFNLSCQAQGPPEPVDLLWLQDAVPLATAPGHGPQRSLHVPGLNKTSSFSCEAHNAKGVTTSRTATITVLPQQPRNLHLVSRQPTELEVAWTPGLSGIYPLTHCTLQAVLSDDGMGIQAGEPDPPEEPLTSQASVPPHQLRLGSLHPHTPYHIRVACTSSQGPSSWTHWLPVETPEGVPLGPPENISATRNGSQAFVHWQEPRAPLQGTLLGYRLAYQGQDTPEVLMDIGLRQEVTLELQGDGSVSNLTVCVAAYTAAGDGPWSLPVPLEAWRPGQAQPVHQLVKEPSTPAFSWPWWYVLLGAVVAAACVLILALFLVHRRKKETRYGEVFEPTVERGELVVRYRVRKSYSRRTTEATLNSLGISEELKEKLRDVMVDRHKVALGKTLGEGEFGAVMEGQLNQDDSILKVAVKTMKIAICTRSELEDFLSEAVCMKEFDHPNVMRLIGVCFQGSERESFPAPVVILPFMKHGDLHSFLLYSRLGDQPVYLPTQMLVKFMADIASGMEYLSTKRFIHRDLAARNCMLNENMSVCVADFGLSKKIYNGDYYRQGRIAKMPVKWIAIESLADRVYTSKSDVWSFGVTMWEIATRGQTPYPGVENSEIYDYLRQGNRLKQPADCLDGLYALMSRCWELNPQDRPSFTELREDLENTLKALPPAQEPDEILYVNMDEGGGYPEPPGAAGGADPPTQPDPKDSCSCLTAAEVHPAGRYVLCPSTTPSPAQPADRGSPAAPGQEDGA

With `C[C@H](Nc1ncnc2nc[nH]c12)c1cc2cccc(Cl)c2c(=O)n1-c1ccccc1`, the Activity was 93.9% in assay [1]; 99.2% in [2]; 105% in assay [3]; 107% in assay [4]; 97.5% in [5]; 96.8% in assay [6]. The Activity in assay [7] was found to be 95.5%; in [8], 96.9%; in [9], 100%; in [10], 100%.
Take `CC[C@H](Nc1ncnc2[nH]cnc12)c1nc2cccc(F)c2c(=O)n1-c1ccccc1`: the Activity stood at 93.5% in assay [1]; 102% in [2]; 100% in [3]; 95.9% in assay [4]; 98.7% in assay [5]; 101% in assay [6]. Besides, the Activity in assay [7] came to 94.5%; in [8], 99.5%; in assay [9] it was 98.1%; in assay [10], 95%.
For the molecule `CC(C)Oc1ccc(-c2nn([C@@H](C)c3oc4ccc(F)cc4c(=O)c3-c3cccc(F)c3)c3ncnc(N)c23)cc1F` [UMBRALISIB], the Activity came out at 91.2% in assay [1]; 103% in [2]; 102% in assay [3]; 99.1% in assay [4]; 98.2% in assay [5]; 98.2% in assay [6]. In addition, the Activity in assay [7] turned out to be 96.5%; in assay [8], 102%; in [9] it was 104%; in [10], 96.4%.

(Values after ChEMBL document CHEMBL5715954, “Silencing c-Myc translation as a therapeutic strategy through targeting PI3Kδ and CK1ε in hematological malignancies” (Blood, 2017).)
